{
  "source": "paper PMC5450916",
  "about": "(Biochemistry, 2010)",
  "key": {"[1]": {"biological_target": "rabbit indoleamine 2,3-dioxygenase (rIDO)", "details": "read-out: Kd^eq, cited from earlier work"}, "[2]": {"biological_target": "T1, human indoleamine 2,3-dioxygenase (hIDO) (Homo sapiens, UniProt P14902)", "T1 sequence (P14902 whole entry)": "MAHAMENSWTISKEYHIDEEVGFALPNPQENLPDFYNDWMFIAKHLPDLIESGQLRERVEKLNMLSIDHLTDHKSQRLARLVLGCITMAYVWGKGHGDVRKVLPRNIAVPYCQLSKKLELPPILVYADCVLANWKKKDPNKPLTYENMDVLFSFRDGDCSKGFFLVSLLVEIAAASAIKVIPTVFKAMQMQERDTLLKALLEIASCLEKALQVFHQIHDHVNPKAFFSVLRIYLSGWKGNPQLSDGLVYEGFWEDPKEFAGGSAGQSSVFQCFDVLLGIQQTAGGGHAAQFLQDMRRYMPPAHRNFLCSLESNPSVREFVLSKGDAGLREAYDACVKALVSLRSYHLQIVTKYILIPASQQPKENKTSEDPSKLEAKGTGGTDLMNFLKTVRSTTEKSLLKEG", "assay": "Stopped-flow binding kinetics"}, "TDO (xcTDO) [3]": {"biological_target": "TDO (xcTDO)", "details": "read-out: Kd^eq, cited from earlier work"}, "[4]": {"biological_target": "T1, human indoleamine 2,3-dioxygenase (hIDO)", "assay": "Steady-state kinetics of hIDO", "type": "biochemical"}, "[5]": {"tested_on": "rabbit indoleamine 2,3-dioxygenase (rIDO)", "details": "cited from earlier work"}, "[6]": {"biological_target": "T1, human indoleamine 2,3-dioxygenase (hIDO)", "details": "L-Trp binding to ferric hIDO; cited from earlier work"}, "TDO (xcTDO) [7]": {"tested_on": "TDO (xcTDO)", "details": "cited from earlier work"}, "[8]": {"biological_target": "T1, human indoleamine 2,3-dioxygenase (hIDO)", "assay": "Equilibrium ligand/substrate titration by optical absorption", "type": "binding", "details": "ferrous hIDO at 50 μM L-Trp, on the basis of Kd 400 μM"}, "[9]": {"biological_target": "T1, human indoleamine 2,3-dioxygenase (hIDO)", "details": "cited from earlier work"}},
  "note": "Values joined by “and” are separate entries in the source; they are usually repeats but may differ in a detail not shown here. Equal entries are not always repeated. Where two headings read alike, the source gives them in different places.",
  "data": [
    {"smiles": "N[C@@H](Cc1c[nH]c2ccccc12)C(=O)O", "note": "[L-Trp, L-Tryptophan]", "values": [
      {"measurement": "Kd", "setting": "[1]; rIDO Fe^2+ + Trp", "value": 13, "unit": "µM"},
      {"measurement": "Kd", "setting": "[1]; rIDO Fe^3+ + Trp, ref 16", "value": 5800, "unit": "µM"},
      {"measurement": "Kd", "setting": "[1]; rIDO Fe^3+ + Trp, ref 35", "value": 30000, "unit": "µM"},
      {"measurement": "Kd", "setting": "[1]; rIDO Fe^3+–CN^− + Trp, ref 34", "value": "10 to 20", "unit": "µM"},
      {"measurement": "Kd", "setting": "[1]; rIDO Fe^3+–CN^− + Trp, ref 35", "value": 16, "unit": "µM"},
      {"measurement": "Kd", "setting": "[2]; Fe^3+ + Trp, calculated from kinetic constants", "value": 1000, "unit": "µM"},
      {"measurement": "Kd", "setting": "[2]; Fe^3+–CN^− + Trp, calculated from koff/kon", "value": 23, "unit": "µM"},
      {"measurement": "binding of L-Trp to the second binding site", "setting": "[2]; cyanide-bound ferric hIDO, higher L-Trp concentrations, stopped-flow", "value": "too fast to be measured"},
      {"measurement": "ΔΔG of L-Trp binding", "setting": "[2]; effect of prebinding of cyanide, tighter substrate binding", "value": -2.3, "unit": "kcal/mol"},
      {"measurement": "retardation of L-Trp dissociation by prebinding of cyanide", "setting": "[2]; koff, cyanide-bound vs ligand-free ferric hIDO", "value": 2, "unit": "fold"},
      {"measurement": "facilitation of L-Trp binding by prebinding of cyanide", "setting": "[2]; kon, cyanide-bound vs ligand-free ferric hIDO", "value": "~ 22 fold and 22 fold"},
      {"measurement": "observed rate constant", "setting": "[2]; ligand-free ferric hIDO with 0.75 mM L-Trp, trace at 403 nm, 20 °C", "value": 10, "unit": "s⁻¹"},
      {"measurement": "Kd", "setting": "TDO (xcTDO) [3]; TDO Fe^2+ + Trp", "value": 0.00412, "unit": "mM"},
      {"measurement": "Kd", "setting": "TDO (xcTDO) [3]; TDO Fe^3+ + Trp", "value": 3.8, "unit": "mM"},
      {"measurement": "Km of L-Trp lower than Kd of L-Trp", "setting": "[4]; Km (15 μM) vs Kd (0.4 mM) of ligand-free ferrous hIDO", "value": "~ 27 fold and 27 fold"},
      {"measurement": "Km lower than Kd (L-Trp)", "setting": "[4]; Km (~15 μM) vs literature Kd (0.53 mM) of ligand-free hIDO", "value": "~ 40 fold"},
      {"measurement": "Km", "setting": "[5]", "value": 12, "unit": "µM"},
      {"measurement": "kon, previously published", "setting": "[6]", "value": 15500, "unit": "µM⁻¹ s⁻¹"},
      {"measurement": "Km", "setting": "TDO (xcTDO) [7]", "value": 114, "unit": "µM"},
      {"measurement": "enzyme in the substrate-bound form", "setting": "[8]", "value": "~ 5%"},
      {"measurement": "self-inhibition (substrate inhibition) constant Ksi", "setting": "[9]; hIDO steady-state turnover", "value": 0.17, "unit": "mM"},
      {"measurement": "Km", "setting": "[9]; read-out: Km of L-Trp, hIDO steady-state reactions", "value": "15 ± 2", "unit": "µM"}
    ]}
  ]
}
